Measured values as given in PMC9061853, “Luminescent bis(benzo[d]thiazolyl)quinoxaline: facile synthesis, nucleic acid and protein BSA interaction, live-cell imaging, biopharmaceutical research and cancer theranostic application” (RSC Advances, 2019).

Tests used:
[1] = MTT cytotoxicity assay, Caco-2; format: cell-based, human; details: human, Caco-2, ratio of IC50 for HEK-293 to IC50 for Caco-2; read-out: SF (selectivity factor) Caco-2
Source text: (§1) In vitro cytotoxic activities (MTT assay):
(§2) The basic detection of cytotoxicity of anticancer compounds in vitro is MTT assay. The MTT proliferation assay is based on the reduction of the yellow MTT tetrazolium salt (3-[4,5-dimethylthiazol-2-yl]-2,5diphenyltetrazolium bromide) by mitochondrial dehydrogenases to form a purple MTT formazan crystals in viable cells. Synthesized compounds (7a-g) were prior dissolved in 0.1% DMSO and then serial dilution with medium and used in the experiment. Three different types of cancer cell lines were used in this experiment i.e., human Epitheloid Cervix Carcinoma (HeLa), human colon cancer cell line (Caco-2) and one normal kidney cell (HEK-293) were used in the assay. The cells were harvested at the log phase and it is cell counted using haemocytometer. Approximately 1 × 10^3 cells per well were seeded using all the cell lines. They were cultured in 100 μL of a DMEM media in 96-well plates and incubated at 37 °C for 24 hours under a 5% CO2 atmosphere. The cells were then washed with 1X PBS buffer and fresh media was added to the cells. The cells were then treated with different concentrations of the drugs (0.65-150 µM) in the volume of […] /well.
(§3) The control wells contains the same cell count of 1 × 10^3 cells per well of 100 μL medium containing 0.1% DMSO. After 24 h (for HeLa cell and HEK-293) and 72 h (for Caco-2), the medium was discarded and it is washed with 1X PBS and it was incubated with 100 µl of MTT reagent (1 mg/ml) for 4 h at 37°C.
(§4) Then the 96 well plate was placed on the shaker for 10 min and subsequently the absorbance was recorded by the ELISA reader at λ = 490 nm. The experiments were performed in […]
(§5) triplicate. […]

[2] = system: Caco-2; experiment: MTT cytotoxicity assay, Caco-2; format: cell-based, human; details: Homo sapiens, Caco-2; 72 h incubation
Source text: as §1, §2, §3, §4, §5

[3] = system: HeLa; experiment: MTT cytotoxicity assay, HeLa; format: cell-based, human; details: for IC50: Homo sapiens, HeLa, 24 h incubation; for SF (selectivity factor) HeLa: ratio of IC50 for HEK-293 to IC50 for HeLa
Procedure: (§6) Cytotoxicity studies were performed for all the synthesized quinoxaline compounds (7a–7g) using standard 3-(4,5-dimethylthiazol-2-yl)-2,5-diphenyltetrazolium bromide (MTT) assay beside a panel of cancer cell lines such as human epithelioid cervix carcinoma (HeLa), human colorectal adenocarcinoma cell line (Caco-2) and one normal human embryonic kidney cells (HEK-293) in triplicates (Table 3). […] It is noteworthy to mention that Compound 7a and 7g presented best cytoselectivity in HeLa and Caco-2 cell lines respectively. […]
as §1
as §2, with “[…]. Cisplatin has been used as a standard positive control drug. The control wells contains the same cell count of 1 × 10^3 cells per well of 100 μL medium containing 0.1% DMSO. After 24 h (for HeLa cell and HEK-293) and 72 h (for Caco-2), the medium was discarded and it is washed with 1X PBS and it was incubated with 100 µl of MTT reagent (1 mg/ml) for 4 h at 37°C.” for “/well.”
as §4, §5

[4] = system: HEK-293; experiment: MTT cytotoxicity assay, HEK-293 normal cells; format: cell-based, human; details: Homo sapiens, HEK293; 24 h incubation
Procedure: as §6, §1
as §2, with “[…]. Cisplatin has been used as a standard positive control drug. The control wells contains the same cell count of 1 × 10^3 cells per well of 100 μL medium containing 0.1% DMSO. After 24 h (for HeLa cell and HEK-293) and 72 h (for Caco-2), the medium was discarded and it is washed with 1X PBS and it was incubated with 100 µl of MTT reagent (1 mg/ml) for 4 h at 37°C.” for “/well.”
as §4, §5

[5] = Buffer solubility (LC-MS/MS); format: physicochemical; details: aqueous buffer, kinetic from dmso stock; pH 7.4 buffer, 2 h incubation
Procedure: LC-MS/MS methods were developed for compound 7g to quantify the drug concentration and in vitro study (i.e. buffer solubility, buffer stability, metabolic stability, and permeability) in a systemic manner (Table 4). Chromatographic elution conditions were set with the use of 5 mM ammonium formate containing 0.1% formic acid and acetonitrile containing 0.1% formic acid with C8, Kromasil, and 4.6 × […] as a stationary phase (Fig. S5a and b ^†). […] For the data analysis, % accuracy of compound 7g was calculated and it was soluble up to 25 μM (Fig. 3, eqn (7) ^†).
The in vitro solubility and stability of 7g were evaluated in pH 7.4 buffer. The buffer solubility and stability studies were conducted at six different concentrations ranging from 3.13 to 100 μM. For the data analysis, % stability of compound 7g at 120 min was calculated with respect to 0 min time point samples and it was stable up to 2 hours in pH 7.4 buffers. Data analysis was performed through the eqn (8) ^† and was tabulated (Table 4). Compound 7g found to be stable up to 2 hours with % remaining of 71% in pH 7.4.

[6] = Fluorescence quantum yield in water; format: physicochemical; details: 298 K, quinine sulphate as standard
Procedure: To know the absorption and emission behaviour of these synthesized compounds (7a–g), a standard concentration (3 × 10^−6 mol l^−1) in water has been used. In UV-vis spectra, λmax of all these compounds are observed at 320–330 nm due to π–π* transition (Fig. S1a ^†). The corresponding emission peaks are observed at 400–500 nm (Fig. S1b ^†). The emission of quantum yield (Φ) was calculated for all of the compounds (7a–g) using eqn (1) (Table S1 ^†). […]
2.6.2. Fluorescence study:
To know the emission property of all the synthesized complexes (7a-g), an initial investigation was performed using spectrofluorometric method in water by using absorption maximum as their excitation energy. Fluorescence quantum yield (Ф) of all the prepared compounds performed in water solution were calculated by employing the comparative William's method which involves the use of well-characterized standard with the known quantum yield value. Quinine sulphate was used as reference fluorophore excited at 350 nm and emission at 452 nm, quantum yield (ФR) = 0.50 in 1N H2SO4. The gradients of the plots are proportional to the quantum yield (Ф) of the studied system. The data obtained and quantum yield value calculated according to the equation (2): […]
Where, φ = Quantum yield, I = Peak Area, OD = absorbance at λmax, η = Refractive index of solvent and reference. Here, we have used Quinine Sulphate as a standard for calculating emission of quantum yield. […]

Structure (SMILES)	selectivity ratio [1]	IC50 [2]	IC50 [3]	SF (selectivity factor) HeLa [3]	IC50 [4]	solubility at 2 h [5]	Φ, emission quantum yield [6]	melting point
COc1ccc2nc(COc3ccccc3-c3nc4ccccc4s3)c(COc3ccccc3-c3nc4ccccc4s3)nc2c1 [Compound 7g, 2,2'-((((6-methoxyquinoxaline-2,3-diyl)bis(methylene))bis(oxy))bis(2,1-phenylene))bis(benzo[d]thiazole)]	> 9	20.8 ± 1.6 µM	36.8 ± 0.2 µM	>5.4	> 200 µM	≤ 25 µM	0.013	155 to 160 °C
Clc1cc2nc(COc3ccccc3-c3nc4ccccc4s3)c(COc3ccccc3-c3nc4ccccc4s3)nc2cc1Cl [Compound 7e]	> 9	20.9 ± 1.6 µM	38.9 ± 0.1 µM	>5.1	> 200 µM		0.04	145 to 150 °C
